Experimental data taken from the Kinase Knowledgebase extract (Sharma et al. 2016).

Molecular target: MAPK14 (human) (UniProt Q16539)
Assay: Inhibition of MAPK14 Kinase Activity

MAPK14 (human), sequence (Q16539 whole entry, looked up): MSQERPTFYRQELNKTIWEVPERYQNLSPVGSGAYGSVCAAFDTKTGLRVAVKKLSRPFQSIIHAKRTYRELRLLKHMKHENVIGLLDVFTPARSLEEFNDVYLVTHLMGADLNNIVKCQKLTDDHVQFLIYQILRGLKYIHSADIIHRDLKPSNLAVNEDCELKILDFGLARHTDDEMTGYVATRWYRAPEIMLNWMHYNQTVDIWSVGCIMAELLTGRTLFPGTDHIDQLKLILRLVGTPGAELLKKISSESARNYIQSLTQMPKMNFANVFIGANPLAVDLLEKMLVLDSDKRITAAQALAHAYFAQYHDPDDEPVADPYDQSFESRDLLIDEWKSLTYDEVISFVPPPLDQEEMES

IC50, ≤ 10 µM:
O=C1CCC(Cc2ccccc2Cl)CN1c1c(Cl)cccc1Cl (configuration not stated), CN(C)CCCNc1cc(Cl)c(N2CC(Cc3ccc(F)cc3F)CCC2=O)c(Cl)c1 (configuration not stated), O=C1CCC(C(O)c2ccc(F)cc2F)CN1c1c(Cl)cccc1Cl (configuration not stated), O=C(Cc1ccccc1)Nc1cc(Cl)c(N2CC(Oc3ccc(F)cc3F)CCC2=O)c(Cl)c1 (configuration not stated), CNc1cc(Cl)c(N2CC(Oc3ccc(F)cc3F)CCC2=O)c(Cl)n1 (configuration not stated), Nc1ncc(Cl)c(N2CC(Oc3ccc(F)cc3F)CCC2=O)c1Cl (configuration not stated), N#C/C=C/c1cc(Cl)c(N2CC(Cc3ccc(F)cc3F)CCC2=O)c(Cl)c1 (configuration not stated), Nc1cc(Cl)c(N2CC(C(=NO)c3ccc(F)cc3F)CCC2=O)c(Cl)c1 (configuration not stated), Cc1cc(C(=O)O)cc(C)c1N1CC(Cc2ccc(F)cc2F)CCC1=O (configuration not stated), COc1ccc(SC2CCC(=O)N(c3c(Cl)cncc3Cl)C2)cc1 (configuration not stated), O=C1CCC(Sc2ccc(F)cc2F)CN1c1c(Cl)ncc(O)c1Cl (configuration not stated), O=C(CNc1cc(Cl)c(N2CC(Cc3ccc(F)cc3F)CCC2=O)c(Cl)c1)NCCO (configuration not stated), Cc1ccc(CC2CCC(=O)N(c3c(Cl)cncc3Cl)C2)cc1 (configuration not stated), O=C1CCC(Sc2cccc3ccccc23)CN1c1c(Cl)cncc1Cl (configuration not stated), Cc1cc(/C=C/CCN(C)C)cc(C)c1N1CC(Cc2ccc(F)cc2F)CCC1=O (configuration not stated), O=C1CCC(Cc2ccc(F)cc2F)CN1c1c(Cl)cc(NCc2ccccc2O)cc1Cl (configuration not stated), O=C1CCC(Cc2ccc(F)cc2F)CN1C1C(Cl)CC(CO)CC1Cl (configuration not stated), CC(=O)N1CC(=O)N(c2c(Cl)cccc2Cl)CC1Cc1ccc(F)cc1F (configuration not stated), COC(=O)CCc1cc(Cl)c(N2CC(Cc3ccc(F)cc3F)CCC2=O)c(Cl)c1 (configuration not stated), Cc1ccccc1CC1CCC(=O)N(c2c(Cl)cncc2Cl)C1 (configuration not stated), CC(c1ccc(F)cc1F)C1CCC(=O)N(c2c(Cl)cccc2Cl)C1 (configuration not stated), O=C1CCC(Sc2ccccc2)CN1c1c(Cl)ccnc1Cl (configuration not stated), Cc1cc(C(=O)N(C)C)cc(C)c1N1CC(Cc2ccc(F)cc2F)CCC1=O (configuration not stated), O=C(CCCO)Nc1cc(Cl)c(N2CC(Cc3ccc(F)cc3F)CCC2=O)c(Cl)c1 (configuration not stated), O=C1CCC(Cc2ccccc2F)CN1c1c(Cl)csc1Cl (configuration not stated), O=C(Cc1ccccc1)Nc1sc(Cl)c(N2CC(Oc3ccc(F)cc3F)CCC2=O)c1Cl (configuration not stated), O=C1OCC(Cc2ccc(F)cc2F)CN1c1c(Cl)ccc(O)c1Cl (configuration not stated), Nc1cc(Cl)c(N2CC(Cc3ccc(F)cc3F)CCC2=O)c(Cl)n1 (configuration not stated), O=C1COC(Cc2ccccc2)CN1c1c(Cl)cccc1Cl (configuration not stated), COCOCc1ccccc1CC1CCC(=O)N(c2c(Cl)cccc2Cl)C1 (configuration not stated), COc1ccccc1SC1CCC(=O)N(C2C(Cl)CCCC2Cl)C1 (configuration not stated), O=C1CCC(Oc2cccc3ccccc23)CN1C1C(Cl)CCCC1Cl (configuration not stated), O=C1CCC(Sc2ccccc2F)CN1c1c(Cl)ccnc1Cl (configuration not stated), Cc1cc(CN)cc(C)c1N1CC(Cc2ccc(F)cc2F)CCC1=O (configuration not stated), O=C1COC(Cc2ccccc2Cl)CN1c1c(Cl)cccc1Cl (configuration not stated), O=C1CCC(Oc2ccc(F)cc2F)CN1C1C(Cl)CCC(CO)C1Cl (configuration not stated), O=C1NCC(Cc2ccc(F)cc2F)CN1c1c(Cl)cc(Br)cc1Cl (configuration not stated), Cn1nc(C(C)(C)C)cc1NC(=O)NCc1ccccc1CC1CCC(=O)N(c2c(Cl)cccc2Cl)C1 (configuration not stated), O=C1CCC(Cc2ccc(F)cc2F)CN1c1c(Cl)cc(NCCN2CCCCC2)cc1Cl (configuration not stated), Cc1cc(N)cc(C)c1N1CC(Cc2ccc(F)cc2F)CCC1=O (configuration not stated), O=C1CCC(Cc2ccc(F)cc2F)CN1c1c(Cl)cc(NCCn2ccnc2)cc1Cl (configuration not stated), NC1CCC(Cl)C(N2CC(Sc3ccc(F)cc3F)CCC2=O)C1Cl (configuration not stated), Cc1ccc(CC2CN(c3c(Cl)cccc3Cl)C(=O)CS2)cc1 (configuration not stated), O=C1CCC(Cc2ccc(F)cc2)CN1c1c(Cl)cccc1Cl (configuration not stated), O=C(Cc1ccccc1)Nc1cc(Cl)c(N2CC(Cc3ccc(F)cc3F)CCC2=O)c(Cl)n1 (configuration not stated), Nc1ccc(Cl)c(N2CC(Cc3ccc(F)cc3F)SCC2=O)c1Cl (configuration not stated), O=C1OCC(Cc2cc(Cl)cc(Cl)c2)CN1c1c(Cl)cccc1Cl (configuration not stated), Cc1cccc(C)c1N1CC(CCCc2ccccc2)CCC1=O (configuration not stated), CN1CC(Cc2ccc(F)cc2F)CN(c2c(Cl)cc(N)cc2Cl)C1=O (configuration not stated), CCN(CC)CC(=O)Nc1cc(Cl)c(N2CC(Cc3ccc(F)cc3F)CCC2=O)c(Cl)c1 (configuration not stated), Cc1ccc(OC2CCC(=O)N(c3c(Cl)cncc3Cl)C2)c(C)c1 (configuration not stated), Nc1cc(Cl)c(N2CC(Cc3ccc(F)cc3F)CNC2=O)c(Cl)c1 (configuration not stated), O=C(Cc1ccccc1)NC1CCC(Cl)C(N2CC(Cc3ccc(F)cc3F)CCC2=O)C1Cl (configuration not stated), O=C1COC(Cc2ccc(F)cc2F)CN1c1c(Cl)cc(CO)cc1Cl (configuration not stated), O=C1CCC(Cc2ccc(F)cc2F)CN1C1C(Cl)CC(O)CC1Cl (configuration not stated), O=C1CCC(Oc2ccc3ccccc3c2)CN1c1c(Cl)cccc1Cl (configuration not stated), CC(C)(C)OC(=O)N1CCC(Nc2cc(Cl)c(N3CC(Cc4ccc(F)cc4F)CCC3=O)c(Cl)c2)CC1 (configuration not stated), CCOC(=O)CCCC(=O)Nc1cc(Cl)c(N2CC(Cc3ccc(F)cc3F)CCC2=O)c(Cl)c1 (configuration not stated), CCOC(=O)CNc1ccc(Cl)c(N2CC(Cc3ccc(F)cc3F)CCC2=O)c1 (configuration not stated), O=C1SCC(Cc2ccccc2F)CN1c1c(Cl)cccc1Cl (configuration not stated), NC(=O)C[C@H](N)C(=O)Nc1cc(Cl)c(N2CC(Cc3ccc(F)cc3F)CCC2=O)c(Cl)c1 (some centres not stated), O=C1CCC(Cc2ccc(Cl)cc2)CN1c1c(Cl)csc1Cl (configuration not stated), O=C1CCC(Sc2cc(F)cc(F)c2)CN1C1C(Cl)CCCC1Cl (configuration not stated), O=C1CCC(Oc2ccc(F)cc2F)CN1c1c(Cl)cnc(O)c1Cl (configuration not stated), NCCCc1cc(Cl)c(N2CC(Cc3ccc(F)cc3F)CCC2=O)c(Cl)c1 (configuration not stated), CNc1ncc(Cl)c(N2CC(Sc3ccc(F)cc3F)CCC2=O)c1Cl (configuration not stated), Nc1cc(Cl)c(N2CC(Oc3ccc(F)cc3F)CCC2=O)c(Cl)n1 (configuration not stated), O=C1COC(Cc2ccc(F)cc2F)CN1c1c(Cl)ccc(O)c1Cl (configuration not stated), Cc1cc(C(=O)NCCN(C)C)cc(C)c1N1CC(Cc2ccc(F)cc2F)CNC1=O (configuration not stated), COc1ccc(CC2CN(c3c(Cl)cccc3Cl)C(=O)CO2)cc1 (configuration not stated), CC(=O)NC1CCC(Cl)C(N2CC(Cc3ccc(F)cc3F)CCC2=O)C1Cl (configuration not stated), CC(=O)Nc1cnc(Cl)c(N2CC(Sc3ccc(F)cc3F)CCC2=O)c1Cl (configuration not stated), O=C1CCC(Oc2ccc(Cl)cc2)CN1c1c(Cl)cccc1Cl (configuration not stated), CC(C)(C)OC(=O)N[C@@H](COCc1ccccc1)C(=O)Nc1cc(Cl)c(N2CC(Cc3ccc(F)cc3F)CCC2=O)c(Cl)c1 (some centres not stated), CN1CCN(CCNc2cc(Cl)c(N3CC(Cc4ccc(F)cc4F)CCC3=O)c(Cl)c2)CC1 (configuration not stated), NNC(=O)CNc1cc(Cl)c(N2CC(Cc3ccc(F)cc3F)CCC2=O)c(Cl)c1 (configuration not stated), O=C(Cc1ccccc1)Nc1cc(Cl)c(N2CC(Cc3ccc(F)cc3F)OCC2=O)c(Cl)c1 (configuration not stated), O=C1CC/C(=C\c2ccc(F)cc2F)CN1c1c(Cl)cccc1Cl, O=C1CCC(CCc2ccccc2)CN1c1c(Cl)cccc1Cl (configuration not stated), O=C1CCC(Sc2cc(Cl)cc(Cl)c2)CN1c1c(Cl)cncc1Cl (configuration not stated), COc1ccc(SC2CCC(=O)N(C3C(Cl)CCCC3Cl)C2)cc1 (configuration not stated), O=C1CCC(Cc2ccccc2)CN1c1c(Cl)ccnc1Cl (configuration not stated), Cc1cc(N)cc(C)c1N1CC(Cc2ccc(F)cc2F)CNC1=O (configuration not stated), O=C1CCC(Cc2ccc(F)cc2F)CN1c1c(Cl)sc(O)c1Cl (configuration not stated), N[C@H]1C[C@@H](Cc2ccc(F)cc2F)CN(c2c(Cl)cccc2Cl)C1=O, O=C1CCC(C(O)c2ccc(F)cc2F)CN1c1c(Cl)cc(Br)cc1Cl (configuration not stated), CC(=O)Nc1cc(Cl)c(N2CC(Sc3ccc(F)cc3F)CCC2=O)c(Cl)c1 (configuration not stated), CN(C)CCNc1cc(Cl)c(N2CC(Cc3ccc(F)cc3F)CCC2=O)c(Cl)c1 (configuration not stated), CC(=O)Nc1cc(Cl)c(N2CC(Cc3ccc(F)cc3F)OCC2=O)c(Cl)c1 (configuration not stated), O=C1CCC(Oc2ccccc2)CN1c1c(Cl)cccc1Cl (configuration not stated), O=C1CCC(Cc2ccccc2)CN1c1c(Cl)cccc1Cl (configuration not stated), CCOC(=O)COc1ccccc1CC1CCC(=O)N(c2c(C)cccc2C)C1 (configuration not stated), NC1CCC(Cl)C(N2CC(Cc3ccc(F)cc3F)CCC2=O)C1Cl (configuration not stated), Cc1ccc(SC2CCC(=O)N(c3c(Cl)ccnc3Cl)C2)cc1 (configuration not stated), CNc1cc(Cl)c(N2CC(Cc3ccc(F)cc3F)CCC2=O)c(Cl)c1 (configuration not stated), O=C1CCC(Oc2cc(Cl)cc(Cl)c2)CN1c1c(Cl)ccnc1Cl (configuration not stated), COC(=O)c1cc(Cl)c(N2CC(Cc3ccc(F)cc3F)CCC2=O)c(Cl)c1 (configuration not stated)
